Test system: 5x-FAD mice
Assay: Radial arm maze test
Type: in vivo
Settings: for Latency to first entry to baited arm: 5x-FAD mice
From the text: Hemizygous 5x-FAD transgenic mice (B6.Cg-Tg(APPSwFlLon, PSEN1*M146L*L286V) 6799Vas/Mmjax; MMRRC Strain: 034848-JAX) on congenic C57BL/6J genetic background were used for experiments. The 5x-FAD mice were genotyped using APP-specific qPCR probes to detect the transgene as per the protocol of Jackson Laboratory. Six months old 5x-FAD mice were randomly divided into three groups (n = 5), based on their body weights, with three males and two females in each group. We used mixed-cohort of males and females for our study to exclude any gender biased effect of IBC. Also, AD symptoms are more pronounced in females than in males ([Aggarwal and Mielke, 2023]), making it possible that males and females respond differently to the drug and treatment. Considering this, it is important to show effect of IBC on both sexes. At this age, Aβ deposition and neuroinflammation has already progressed in these mice. We have used IBC as a curative drug rather than a preventive drug. Prior to the initiation of the study, all the animals were acclimatized for 1 week under standard laboratory conditions; animals were drug naive with no prior procedures performed. All testing were performed from 1 to 4 p.m. IBC was orally (OD) given to two groups at different doses, 25 mg/kg (1% DMSO, 2% Tween 80, 19% PEG200, and 78% distilled water) and 50 mg/kg (1% DMSO, 5% Tween 80, 19% PEG200% and 75% distilled water) using oral gavage. 5x-FAD control mice were administered with vehicle (1% DMSO, 5% Tween 80, 19% PEG200% and 75% distilled water). For behavioral and Immunohistochemistry assays, experimenters were blinded to animal identity while carrying out the procedures.
To check the effect of IBC on the behavior of 5x-FAD mice, open field test (OFT), rotarod (Make; Ugo Basile, rota-rod for mice 7650) and radial arm maze (Make; Ugo Basile) tests were performed. All behavioral assays and testing were performed by an experimenter blinded to the treatment groups. To check the effect of IBC on motor coordination and balancing rotarod test was performed. After acclimatizing mice with rotarod for 5 days, their latency to fall was calculated on the day of analysis. The given final values are the mean of three independent attempts of each mouse. OFT was performed to assess exploratory and locomotor activity in a white box (45 × 60 cm). Distance traveled, speed, time spent in corner and center zones and mobile episodes were recorded through an automated video tracking system using AnyMaze software. To check the effect of IBC on the spatial memory of mice, the eight-armed radial arm maze test was done. The mice were acclimatized to the maze for 5 days before the experiment. Each mouse was trained to navigate the maze for five consecutive days. The mouse was placed on the end of one arm (entry arm). For spatial memory assessment, a food reward (100 mg of butter cookies) was placed in the selected arm, which was considered as […]. The movement of mice was tracked with the help of automated AnyMaze software connected with a tracking camera and various memory retention parameters were assessed.

[1] = 25 and 50 mg/kg oral, vs 5x-FAD control

## CC(C)=CCc1c(O)ccc(C(=O)/C=C/c2ccc(O)cc2)c1O [IBC, isobavachalcone]
25 mg/kg oral
  Latency to first entry to baited arm: 16.58 s
50 mg/kg oral
  Latency to first entry to baited arm: 14.36 s
[1]
  Baited arm time: significantly longer time
  Distance traveled to find the baited arm: significantly less distance
  Entries to non-baited arm: smaller number of entries
